Results as given in US11576903B2, “Amorphous kinase inhibitor formulations and methods of use thereof” (Deciphera Pharmaceuticals, LLC, priority 2019, dated 2023).
Converted amounts (≈) assume the structure as drawn.

Experiments:
[1] = Kinetic aqueous solubility at select pH; assay type: physicochemical; conditions: aqueous medium, kinetic from dmso stock, 25° C.
Description: Solubility of a solid dispersion of amorphous Compound 1 (25%)/HPMCAS-HG as prepared in Example 1, at select pH values was evaluated.

[2] = Pharmacokinetic study after oral administration to rats; conditions: rat, in vivo, 10 mg/kg (Compound 1 basis), oral suspension
Description: Studies comparing the pharmacokinetics of crystalline Compound 1 and solid dispersion of amorphous Compound 1 (25%) as prepared in Example 1 were conducted in rats. The dose in both studies were 10 mg/kg (Compound 1 basis). Rats were administered Crystalline Compound 1 as an oral suspension in a vehicle of 20% Captisol/0.4% HPMC at pH 2. Rats were administered amorphous Compound 1 as an oral suspension using in a 0.5% Methocel vehicle.

solubility kinetic ([1]; aqueous buffer, pH 6.5, aqueous): 1 µg/mL (≈ 1.96 µM)
solubility kinetic ([1]; simulated gastric fluid, pH 2, aqueous): 6 µg/mL (≈ 11.8 µM)
AUC(0-inf) [2]: 131 ng·h/mL
AUC(0-t) [2]: 111 ng·h/mL
Cmax [2]: 20.2 ng/mL
Tmax [2]: 1.67 h
half-life [2]: 8.76 h
Compound: CCn1c(=O)c(-c2cc(NC(=O)Nc3ccccc3)c(F)cc2Br)cc2cnc(NC)cc21 [Crystalline Compound 1]
